{
  "source": "paper PMC4604124",
  "about": "“In Vitro Characterization of the Pharmacological Properties of the Anti-Cancer Chelator, Bp4eT, and Its Phase I Metabolites” (PLoS ONE, 2015)",
  "key": {"[1]": {"test_system": "HCT116 human colorectal carcinoma cells", "test": "MTT cytotoxicity assay, HCT116 cells", "type": "cell-based", "settings": "for IC50: MTT", "procedure": "For cytotoxicity experiments, cancer cells were seeded at a density of 5,000 (MCF-7), 10,000 (HL-60) or 2,000 cells/well (HCT116 and A549) in 96-well plates (TPP) for 24 h/37°C prior to the addition of examined agents. The non-cancerous cells, 3T3 and H9c2 cells, were cultured for 24 h/37°C in 96-well plates at a density of 10,000 cells/well, the medium was then changed to serum- and pyruvate-free DMEM (Sigma-Aldrich) and incubated with the cells for another 24 h/37°C. The cytotoxic effects of Bp4eT and its metabolites were studied at different concentrations after a 72 h/37°C incubation. In order to aid the dissolution of the lipophilic ligands, 0.1% dimethyl sulfoxide (v/v) (DMSO; Sigma-Aldrich) was present in the culture medium of all groups. At this concentration, DMSO had no effect on cellular proliferation or viability.\nThe viability of cells were determined using an MTT assay (Sigma-Aldrich) according to previously established methods. The optical density of soluble MTT was measured at λ = 570 nm, subtracting the λ = 690 nm background using a Tecan Infinite 200M plate reader (Tecan Group, Männedorf, Switzerland). The viability or proliferation of experimental groups was expressed as a percentage of the untreated controls (100%).\n(§1) SigmaStat for Windows 3.5 (Systat Software, San Jose, CA, USA) statistical software package was utilized to analyze results. The data are expressed as the mean ± SD of a given number of experiments. Statistical significance was determined using a one-way ANOVA with a Bonferroni post-hoc test or Student’s t-test. The results were considered to be statistically significant when p < 0.05. The IC50 values were calculated using CalcuSyn 2.0 software (Biosoft, Cambridge, UK). Cell cycle analysis was evaluated using MultiCycle AV Software (Phoenix Flow Systems, San Diego, CA, USA)."}, "[2]": {"test": "MTT cytotoxicity assay, 3T3 cells", "type": "cell-based, mouse", "settings": "mouse, 3T3 mouse embryo fibroblasts, 3T3, 10 000 b/j; for viability at 72 h, 3 nM: koncentrace 3 nM; for viability at 72 h, 10 nM: koncentrace 10 nM; for viability at 72 h, 30 nM: koncentrace 30 nM; for viability at 72 h, 100 nM: koncentrace 100 nM; for viability at 72 h, 300 nM: koncentrace 300 nM; for viability at 72 h, 1000 nM: koncentrace 1000 nM; for viability at 72 h, 3000 nM: koncentrace 3000 nM", "method_in_brief": "(§2)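 3T3 fibroblast viability was measured with an MTT assay, reading optical density at λ = 570 nm with λ = 690 nm background subtracted on a Tecan Infinite 200M. Results were expressed as a percentage of untreated controls (100%) and reported as mean ± SD. IC50 values came from CalcuSyn 2.0 after a 72 h/37°C incubation.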"}, "[3]": {"test_system": "3T3 mouse embryo fibroblasts", "test": "MTT cytotoxicity assay, 3T3 cells", "type": "cell-based", "settings": "for IC50: MTT", "method_in_brief": "as §2"}, "[4]": {"test_system": "MCF-7 cells", "test": "Cell cycle analysis by flow cytometry (propidium iodide)", "type": "cell-based, human", "settings": "0.1 μM, 72 h", "procedure": "To examine the effect of the agents on the cell cycle, MCF-7 cells were seeded in 60 mm Petri dishes at a density of 240,000 cells/dish and incubated with Bp4eT or its metabolites for 72 h/37°C. The cells were then harvested, fixed by ethanol and stained by propidium iodide (Molecular Probes, Eugene, OR, USA) for 30 min/37°C, as described previously. Cells were analyzed using Accuri C6 flow cytometer (Becton Dickinson and Company, San Jose, CA USA). Propidium iodide was excited at λex = 488 nm and fluorescence analyzed at λem = 585 nm (FL-2) with a total of 10,000 events collected per analysis.\nas §1"}, "[5]": {"settings": "individual experiments, read-out: MTT viability (0 = 100)"}, "[6]": {"settings": "mean, read-out: MTT viability (0 = 100), průměr"}},
  "note": "Values joined by “and” are separate entries in the source; they are usually repeats but may differ in a detail not shown here. Identical values can stand only once. Like-named read-outs stand apart in the source and are kept apart here.",
  "data": [
    {"smiles": "CCNC(=S)NN=C(c1ccccc1)c1ccccn1", "note": "[Bp4eT, 2-benzoylpyridine 4-ethyl-3-thiosemicarbazone]", "values": [
      {"measurement": "Therapeutic index, IC50 non-cancerous cells / IC50 neoplastic cells", "setting": "[1]; 3T3/HCT116", "result": 163.6},
      {"measurement": "Therapeutic index, IC50 non-cancerous cells / IC50 neoplastic cells", "setting": "[1]; H9c2/HCT116", "result": 65.5},
      {"measurement": "MTT, relative to control (0 = 100)", "setting": "[1]; HCT116, 2 000 b/j, 0.1 nM, průměr (mean)", "result": 92.91},
      {"measurement": "MTT, relative to control (0 = 100)", "setting": "[1]; HCT116, 2 000 b/j, 0.1 nM, single experiment (date)", "result": "94.5188 and 92.721 and 92.454 and 82.0932 and 102.751"},
      {"measurement": "MTT, relative to control (0 = 100)", "setting": "[1]; HCT116, 2 000 b/j, 0.3 nM, průměr (mean)", "result": 88.66},
      {"measurement": "MTT, relative to control (0 = 100)", "setting": "[1]; HCT116, 2 000 b/j, 0.3 nM, single experiment (date)", "result": "92.7269 and 86.3547 and 90.8174 and 78.0265 and 95.3944"},
      {"measurement": "MTT, relative to control (0 = 100)", "setting": "[1]; HCT116, 2 000 b/j, 1 nM, průměr (mean)", "result": 85.74},
      {"measurement": "MTT, relative to control (0 = 100)", "setting": "[1]; HCT116, 2 000 b/j, 1 nM, single experiment (date)", "result": "90.3279 and 80.727 and 89.5958 and 78.1202 and 89.9198"},
      {"measurement": "MTT, relative to control (0 = 100)", "setting": "[1]; HCT116, 2 000 b/j, 3 nM, průměr (mean)", "result": 82.64},
      {"measurement": "MTT, relative to control (0 = 100)", "setting": "[1]; HCT116, 2 000 b/j, 3 nM, single experiment (date)", "result": "85.5357 and 81.1307 and 88.4648 and 76.4907 and 81.5651"},
      {"measurement": "MTT, relative to control (0 = 100)", "setting": "[1]; HCT116, 2 000 b/j, 10 nM, průměr (mean)", "result": 43.25},
      {"measurement": "MTT, relative to control (0 = 100)", "setting": "[1]; HCT116, 2 000 b/j, 10 nM, single experiment (date)", "result": "46.7731 and 45.9842 and 47.2591 and 32.9751"},
      {"measurement": "MTT, relative to control (0 = 100)", "setting": "[1]; HCT116, 2 000 b/j, 30 nM, průměr (mean)", "result": 5.63},
      {"measurement": "MTT, relative to control (0 = 100)", "setting": "[1]; HCT116, 2 000 b/j, 100 nM, průměr (mean)", "result": 2.50},
      {"measurement": "IC50", "setting": "[1]; HCT116, 2 000 b/j, single experiment (date)", "result": "7.8 nM and 8.77 nM and 5.93 nM"},
      {"measurement": "IC50", "setting": "[1]; Homo sapiens, HCT-116, 72 h, HCT116, 72 h/37°C, mean ± SD, n ≥ 4", "result": "8 ± 1", "unit": "nM"},
      {"measurement": "IC50", "setting": "[1]; Homo sapiens, HCT-116, HCT116, 2 000 b/j, průměr (mean)", "result": 7.6, "unit": "nM"},
      {"measurement": "IC50", "setting": "[1]; Homo sapiens, HCT-116, HCT116, 2 000 b/j, single experiment (date)", "result": 7.89, "unit": "nM"},
      {"measurement": "viability at 72 h, 3 nM", "setting": "[2]; [5]", "result": 101, "unit": "%"},
      {"measurement": "viability at 72 h, 3 nM", "setting": "[2]; [6]", "result": 102, "unit": "%"},
      {"measurement": "viability at 72 h, 10 nM", "setting": "[2]; [5]", "result": 93.7, "unit": "%"},
      {"measurement": "viability at 72 h, 10 nM", "setting": "[2]; [6]", "result": 98.6, "unit": "%"},
      {"measurement": "viability at 72 h, 30 nM", "setting": "[2]; [5]", "result": 89, "unit": "%"},
      {"measurement": "viability at 72 h, 30 nM", "setting": "[2]; [6]", "result": 91.5, "unit": "%"},
      {"measurement": "viability at 72 h, 100 nM", "setting": "[2]; [5]", "result": 75.4, "unit": "%"},
      {"measurement": "viability at 72 h, 100 nM", "setting": "[2]; [6]", "result": 72.8, "unit": "%"},
      {"measurement": "viability at 72 h, 300 nM", "setting": "[2]; [5]", "result": 72.4, "unit": "%"},
      {"measurement": "viability at 72 h, 300 nM", "setting": "[2]; [6]", "result": 69.4, "unit": "%"},
      {"measurement": "viability at 72 h, 1000 nM", "setting": "[2]; [5]", "result": 49.5, "unit": "%"},
      {"measurement": "viability at 72 h, 1000 nM", "setting": "[2]; [6]", "result": 56.6, "unit": "%"},
      {"measurement": "viability at 72 h, 3000 nM", "setting": "[2]; [5]", "result": 32.5, "unit": "%"},
      {"measurement": "viability at 72 h, 3000 nM", "setting": "[2]; [6]", "result": 40.5, "unit": "%"},
      {"measurement": "IC50", "setting": "[3]; 3T3, 10 000 b/j, individual experiments, read-out: IC50", "result": "1080 nM and 1700 nM and 1480 nM"},
      {"measurement": "MTT viability (0 = 100)", "setting": "[3]; 3T3, 10 000 b/j, koncentrace 3 nM, individual experiments", "result": "107.858 and 101.159 and 95.977"},
      {"measurement": "MTT viability (0 = 100)", "setting": "[3]; 3T3, 10 000 b/j, koncentrace 10 nM, individual experiments", "result": "95.2009 and 97.9751 and 101.968 and 103.897"},
      {"measurement": "MTT viability (0 = 100)", "setting": "[3]; 3T3, 10 000 b/j, koncentrace 30 nM, individual experiments", "result": "82.5017 and 95.1437 and 97.4935 and 93.6042"},
      {"measurement": "MTT viability (0 = 100)", "setting": "[3]; 3T3, 10 000 b/j, koncentrace 100 nM, individual experiments", "result": "72.3252 and 75.1668 and 68.1869"},
      {"measurement": "MTT viability (0 = 100)", "setting": "[3]; 3T3, 10 000 b/j, koncentrace 300 nM, individual experiments", "result": "69.1649 and 63.247 and 72.6411"},
      {"measurement": "MTT viability (0 = 100)", "setting": "[3]; 3T3, 10 000 b/j, koncentrace 1000 nM, individual experiments", "result": "57.0662 and 64.2452 and 55.7111"},
      {"measurement": "MTT viability (0 = 100)", "setting": "[3]; 3T3, 10 000 b/j, koncentrace 3000 nM, individual experiments", "result": "36.2815 and 49.6279 and 43.6868"},
      {"measurement": "IC50", "setting": "[3]; Mus musculus, Fibroblast, 3T3, 10 000 b/j, individual experiments, read-out: IC50", "result": 977, "unit": "nM"},
      {"measurement": "IC50", "setting": "[3]; Mus musculus, Fibroblast, 3T3, 10 000 b/j, mean, read-out: IC50, průměr", "result": 1310, "unit": "nM"},
      {"measurement": "IC50", "setting": "[3]; Mus musculus, Fibroblast, 72 h, 3T3, 72 h/37°C, mean ± SD, n ≥ 4, read-out: IC50", "result": "1310 ± 337", "unit": "nM"},
      {"measurement": "G1 phase of the cell cycle", "setting": "[4]", "result": "not significantly (p > 0.05) different from the control"},
      {"measurement": "Percentage of cells in the S phase", "setting": "[4]; control 15%", "result": 35, "unit": "%"},
      {"measurement": "Percentage of cells in the G2/M phase", "setting": "[4]; control 33%", "result": 12, "unit": "%"}
    ]}
  ]
}
